Reference: PubChem BioAssay AID248 (DTP/NCI, 2004)
“And” between values parts separate entries of the source, which are not always exact repeats. Equal values may be shown once. Toxic doses and inconclusive results are not listed. No stated cut-off is given here; in the data, active means T/C of 150% or more; inactive means T/C below 125%.

Tested on: L1210 leukemia ip in BDF1 mice, survival T/C
Assay: NCI In Vivo Anticancer Drug Screen. Data for tumor model L1210 Leukemia (intraperitoneal) in B6D2F1 (BDF1) mice
Conditions: endpoint: mean survival time, higher = longer survival
Procedure, shortened: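 Tumor cells were implanted, animals were treated, and survival was followed. The result divides the treated measurement by the vehicle-control measurement.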

[1] = dose: 100.0 mg/kg/injection, schedule: Q04DX002 (ip), vehicle: saline with Tween-80
[2] = dose: 100.0 mg/kg/injection, schedule: Q01DX009 (ip), vehicle: saline
[3] = dose: 100.0 mg/kg/injection, schedule: Q04DX003 (ip), vehicle: saline with Tween-80
[4] = dose: 200.0 mg/kg/injection, schedule: Q04DX003 (ip), vehicle: saline with Tween-80
[5] = dose: 400.0 mg/kg/injection, schedule: Q04DX002 (ip), vehicle: saline with Tween-80

Measured: T/C

COC1C=COC2(C)Oc3c(C)c(O)c4c(c3C2=O)/C(=N/C2CCC(O)OC2C)C=C(NC(=O)/C(C)=C\C(=O)C2CC2C(O)C(C)C(O)C(C)C(OC(C)=O)C1C)C4=O (configuration not stated)
inactive: dose: 50.0 mg/kg/injection, schedule: Q04DX002 (ip), vehicle: saline with Tween-80 95 % of control | [1] 95 % of control

COc1cc2ccncc2cc1OCc1ccccc1
inactive: dose: 25.0 mg/kg/injection, schedule: Q01DX009 (ip), vehicle: saline 104 % of control | dose: 50.0 mg/kg/injection, schedule: Q01DX009 (ip), vehicle: saline 96 % of control | [2] 102 % of control

CCC[CH2][Sn]([c]1ccccc1)([c]1ccccc1)[c]1ccccc1
inactive: dose: 25.6 mg/kg/injection, schedule: Q04DX002 (ip), vehicle: saline with Tween-80 90 % of control | dose: 64.0 mg/kg/injection, schedule: Q04DX002 (ip), vehicle: saline with Tween-80 90 % of control | [3] 88 % of control | dose: 160.0 mg/kg/injection, schedule: Q04DX002 (ip), vehicle: saline with Tween-80 93 % of control | [4] 96 % of control | [5] 97 % of control

C[n+]1ccc(/C=C\Nc2ccccc2)cc1
inactive: dose: 75.0 mg/kg/injection, schedule: Q01DX001 (ip), vehicle: other 94 % of control | dose: 150.0 mg/kg/injection, schedule: Q01DX001 (ip), vehicle: other 94 % of control | dose: 300.0 mg/kg/injection, schedule: Q01DX001 (ip), vehicle: other 94 % of control

Cc1ccc(C(=O)O)cn1
inactive: [2] 97 % of control | dose: 100.0 mg/kg/injection, schedule: Q04DX003 (ip), vehicle: saline 97 % of control | dose: 200.0 mg/kg/injection, schedule: Q01DX009 (ip), vehicle: saline 98 % of control | dose: 200.0 mg/kg/injection, schedule: Q04DX003 (ip), vehicle: saline 113 % of control | dose: 400.0 mg/kg/injection, schedule: Q01DX009 (ip), vehicle: saline 97 % of control | dose: 400.0 mg/kg/injection, schedule: Q04DX003 (ip), vehicle: saline 105 % of control

O=C(Nc1ccc(C2=NCCN2)cc1)c1ccc(C(=O)Nc2ccc(C3=NCCN3)cc2)c(F)c1
inactive: dose: 2.75 mg/kg/injection, schedule: Q01DX Z (ip), vehicle: carboxymethylcellulose (CMC) 119 % of control | dose: 11.0 mg/kg/injection, schedule: Q01DX Z (ip), vehicle: carboxymethylcellulose (CMC) 122 % of control | dose: 31.0 mg/kg/injection, schedule: Q01DX Z (oral), vehicle: carboxymethylcellulose (CMC) 100 % of control | dose: 62.0 mg/kg/injection, schedule: Q01DX Z (oral), vehicle: carboxymethylcellulose (CMC) 101 % of control | dose: 112.0 mg/kg/injection, schedule: Q01DX Z (oral), vehicle: carboxymethylcellulose (CMC) 105 % of control | dose: 180.0 mg/kg/injection, schedule: Q01DX Z (ip), vehicle: carboxymethylcellulose (CMC) 94 % of control | dose: 225.0 mg/kg/injection, schedule: Q01DX Z (oral), vehicle: carboxymethylcellulose (CMC) 103 % of control
active: dose: 22.0 mg/kg/injection, schedule: Q01DX Z (ip), vehicle: carboxymethylcellulose (CMC) 227 % of control | dose: 45.0 mg/kg/injection, schedule: Q01DX Z (ip), vehicle: carboxymethylcellulose (CMC) 291 % of control | dose: 90.0 mg/kg/injection, schedule: Q01DX Z (ip), vehicle: carboxymethylcellulose (CMC) 167 % of control

COC1OC2COC(c3ccccc3)OC2C2OC12 (configuration not stated)
inactive: dose: 100.0 mg/kg/injection, schedule: Q01DX001 (ip), vehicle: saline with Tween-80 94 % of control | dose: 100.0 mg/kg/injection, schedule: Q01DX009 (ip), vehicle: saline with Tween-80 102 % of control | [1] 100 % of control and 90 % of control | [3] 91 % of control and 86 % of control | dose: 200.0 mg/kg/injection, schedule: Q01DX001 (ip), vehicle: saline with Tween-80 88 % of control | dose: 200.0 mg/kg/injection, schedule: Q01DX009 (ip), vehicle: saline with Tween-80 102 % of control | dose: 200.0 mg/kg/injection, schedule: Q04DX002 (ip), vehicle: saline with Tween-80 96 % of control and 111 % of control | [4] 100 % of control and 88 % of control | dose: 400.0 mg/kg/injection, schedule: Q01DX001 (ip), vehicle: saline with Tween-80 88 % of control | dose: 400.0 mg/kg/injection, schedule: Q01DX009 (ip), vehicle: saline with Tween-80 97 % of control | [5] 100 % of control and 97 % of control | dose: 400.0 mg/kg/injection, schedule: Q04DX003 (ip), vehicle: saline with Tween-80 90 % of control and 93 % of control
